Measurements taken from patent US20260109712A1, “RIFAMYCINS FOR NONTUBERCULOUS MYCOBACTERIA” (priority 2022, published 2026).
Values after ≈ are worked out from the molar mass of the structure shown.

Key:
M. abscessus ATCC 19977 = experiment: MIC assay in 96-well plate format, wild-type strain; format: cell-based, Mycobacterium abscessus; conditions: for MICWT: Table 10; for MIC: Table 15, heterocyclic aromatic carbamates, read-out: WT Mab MIC
Method: (§1) MIC determination was carried out in 96-well plate format as previously described.^[13-14] 96-well plates were initially set up with 100 μL of 7H9 per well. For each compound, a ten-point two-fold dilution series starting at twice the desired highest concentration was dispensed onto the 96-well plates using a Tecan D300e Digital Dispenser, with the DMSO concentration normalized to 2%. M. abscessus culture grown to mid-log phase (OD600=0.4-0.6) was diluted to OD600=0.1 (1×10^7 CFU/mL). […] Untreated control wells are included on each plate that contain bacteria suspension and 1% DMSO. Plates were sealed with parafilm, stored in boxes with wet paper towels and incubated at 37° C. with shaking (110 RPM). Plates were incubated for 3 days. To determine growth, OD600 was measured using a Tecan Infinite M200 plate reader on Day 0 and Day 3. Two biological replicates were performed. Clarithromycin was included in each experiment as a positive control.
(§2) For each well on the 96-well plate, bacterial growth was calculated by subtracting the Day 0 OD600 value from the Day 3 OD600 value. […] For compound-containing wells, percentage growth was calculated by dividing their growth values by the average drug-free bacterial growth for the compound series and multiplying by 100. For each compound series, we plotted percentage growth versus compound concentration.

Δarr M. abscessus = experiment: MIC assay, isogenic arr-deleted strain; format: cell-based, Mycobacterium abscessus; conditions: Table 10
Method: as §1, §2

[1] = Plasma protein binding assay (rapid equilibrium dialysis); format: in vitro ADME
Method: DMSO stocks were spiked into plasma to a concentration of 10,000 ng/mL. 200 μL of spiked plasma was pipetted into the sample chamber of the rapid equilibrium dialysis (RED) cartridge. 350 μL of PBS was added to the adjacent cartridge. The plate containing the RED was sealed and incubated at 37° C. on the thermomixer at 300 RPM for 4 h. After incubation, 50 μL aliquots of plasma were removed and added to 50 μL of blank plasma in a deep well plate (1:1). Similarly, 50 μL aliquots of PBS were removed and added to 50 μL of blank plasma. This created an identical matrix between buffer and non-buffer samples. Samples were processed and quantified as specified in the LC-MS/MS analytical method.

CO[C@H]1/C=C/O[C@@]2(C)Oc3c(C)c(O)c4c(c3C2=O)C2=NC3(CCN(CC(C)C)CC3)NC2=C(NC(=O)/C(C)=C/C=C/[C@H](C)[C@H](O)[C@@H](C)[C@@H](O)[C@@H](C)[C@H](OC(=O)c2ccccc2F)[C@@H]1C)C4=O [UMN23]
MICWT (M. abscessus ATCC 19977): 0.06 µM
MICΔorr (Δarr M. abscessus): 0.058 µM
plasma unbound fraction ([1]; Table 10): 0.05%

CO[C@H]1/C=C/O[C@@]2(C)Oc3c(C)c(O)c4c(c3C2=O)C2=NC3(CCN(CC(C)C)CC3)NC2=C(NC(=O)/C(C)=C/C=C/[C@H](C)[C@H](O)[C@@H](C)[C@@H](O)[C@@H](C)[C@H](OC(=O)c2ccccc2Cl)[C@@H]1C)C4=O [UMN24]
MICWT (M. abscessus ATCC 19977): 0.043 µM
MICΔorr (Δarr M. abscessus): 0.049 µM
plasma unbound fraction ([1]; Table 10): 0.06%

COc1ccccc1C(=O)O[C@H]1[C@H](C)[C@H](O)[C@H](C)[C@@H](O)[C@@H](C)/C=C/C=C(\C)C(=O)NC2=C3NC4(CCN(CC(C)C)CC4)N=C3c3c(c(O)c(C)c4c3C(=O)[C@@](C)(O/C=C/[C@H](OC)[C@H]1C)O4)C2=O [UMN29]
MICWT (M. abscessus ATCC 19977): 0.03 µM
MICΔorr (Δarr M. abscessus): 0.03 µM
plasma unbound fraction ([1]; Table 10): 0.22%

CO[C@H]1/C=C/O[C@@]2(C)Oc3c(C)c(O)c4c(c3C2=O)C2=NC3(CCN(CC(C)C)CC3)NC2=C(NC(=O)/C(C)=C/C=C/[C@H](C)[C@H](O)[C@@H](C)[C@@H](O)[C@@H](C)[C@H](OC(=O)Nc2cccc(C)c2)[C@@H]1C)C4=O [UMN35]
MICWT (M. abscessus ATCC 19977): 0.034 µM
MICΔorr (Δarr M. abscessus): 0.036 µM
plasma unbound fraction ([1]; Table 10): 0.05%

CO[C@H]1/C=C/O[C@@]2(C)Oc3c(C)c(O)c4c(c3C2=O)C2=NC3(CCN(CC(C)C)CC3)NC2=C(NC(=O)/C(C)=C/C=C/[C@H](C)[C@H](O)[C@@H](C)[C@@H](O)[C@@H](C)[C@H](OC(=O)Nc2ccccc2-c2ccccc2)[C@@H]1C)C4=O [UMN36]
MICWT (M. abscessus ATCC 19977): 0.035 µM
MIC (M. abscessus ATCC 19977): 0.035 µM (≈ 0.035 µg/mL)
MICΔorr (Δarr M. abscessus): 0.05 µM
ƒu [1]: 0.02%
plasma unbound fraction ([1]; plasma): 0.02%

COc1ccc(NC(=O)O[C@H]2[C@H](C)[C@H](O)[C@H](C)[C@@H](O)[C@@H](C)/C=C/C=C(\C)C(=O)NC3=C4NC5(CCN(CC(C)C)CC5)N=C4c4c(c(O)c(C)c5c4C(=O)[C@@](C)(O/C=C/[C@H](OC)[C@H]2C)O5)C3=O)cc1 [UMN37]
MICWT (M. abscessus ATCC 19977): 0.031 µM
MICΔorr (Δarr M. abscessus): 0.034 µM
plasma unbound fraction ([1]; Table 10): 0.15%

CO[C@H]1/C=C/O[C@@]2(C)Oc3c(C)c(O)c4c(c3C2=O)C2=NC3(CCN(CC(C)C)CC3)NC2=C(NC(=O)/C(C)=C/C=C/[C@H](C)[C@H](O)[C@@H](C)[C@@H](O)[C@@H](C)[C@H](OC(=O)Nc2ccccc2C)[C@@H]1C)C4=O [UMN39]
MICWT (M. abscessus ATCC 19977): 0.014 µM
MIC (M. abscessus ATCC 19977): 0.014 µM (≈ 0.0131 µg/mL)
MICΔorr (Δarr M. abscessus): 0.017 µM
ƒu [1]: 0.1%
plasma unbound fraction ([1]; plasma): 0.13%

CO[C@H]1/C=C/O[C@@]2(C)Oc3c(C)c(O)c4c(c3C2=O)C2=NC3(CCN(CC(C)C)CC3)NC2=C(NC(=O)/C(C)=C/C=C/[C@H](C)[C@H](O)[C@@H](C)[C@@H](O)[C@@H](C)[C@H](OC(=O)NCc2cc(-c3ccccc3)no2)[C@@H]1C)C4=O [UMN40]
MICWT (M. abscessus ATCC 19977): 0.035 µM
MICΔorr (Δarr M. abscessus): 0.03 µM
plasma unbound fraction ([1]; Table 10): 0.12%

COc1cccc(NC(=O)O[C@H]2[C@H](C)[C@H](O)[C@H](C)[C@@H](O)[C@@H](C)/C=C/C=C(\C)C(=O)NC3=C4NC5(CCN(CC(C)C)CC5)N=C4c4c(c(O)c(C)c5c4C(=O)[C@@](C)(O/C=C/[C@H](OC)[C@H]2C)O5)C3=O)c1 [UMN42]
MICWT (M. abscessus ATCC 19977): 0.025 µM
MICΔorr (Δarr M. abscessus): 0.03 µM
plasma unbound fraction ([1]; Table 10): 0.09%

CO[C@H]1/C=C/O[C@@]2(C)Oc3c(C)c(O)c4c(c3C2=O)C2=NC3(CCN(CC(C)C)CC3)NC2=C(NC(=O)/C(C)=C/C=C/[C@H](C)[C@H](O)[C@@H](C)[C@@H](O)[C@@H](C)[C@H](OC(=O)Nc2ccc(C)cc2)[C@@H]1C)C4=O [UMN43]
MICWT (M. abscessus ATCC 19977): 0.05 µM
MICΔorr (Δarr M. abscessus): 0.03 µM
plasma unbound fraction ([1]; Table 10): 0.05%

CO[C@H]1/C=C/O[C@@]2(C)Oc3c(C)c(O)c4c(c3C2=O)C2=NC3(CCN(CC(C)C)CC3)NC2=C(NC(=O)/C(C)=C/C=C/[C@H](C)[C@H](O)[C@@H](C)[C@@H](O)[C@@H](C)[C@H](OC(=O)c2nccs2)[C@@H]1C)C4=O [UMN45]
MICWT (M. abscessus ATCC 19977): 0.017 µM
MICΔorr (Δarr M. abscessus): 0.017 µM
plasma unbound fraction ([1]; Table 10): 1.89%

CO[C@H]1/C=C/O[C@@]2(C)Oc3c(C)c(O)c4c(c3C2=O)C2=NC3(CCN(CC(C)C)CC3)NC2=C(NC(=O)/C(C)=C/C=C/[C@H](C)[C@H](O)[C@@H](C)[C@@H](O)[C@@H](C)[C@H](OC(=O)N2CCN(CC(C)C)CC2)[C@@H]1C)C4=O [UMN53]
MICWT (M. abscessus ATCC 19977): 0.027 µM
MICΔorr (Δarr M. abscessus): 0.02 µM
plasma unbound fraction ([1]; Table 10): 0.20%

CO[C@H]1/C=C/O[C@@]2(C)Oc3c(C)c(O)c4c(c3C2=O)C2=NC3(CCN(CC(C)C)CC3)NC2=C(NC(=O)/C(C)=C/C=C/[C@H](C)[C@H](O)[C@@H](C)[C@@H](O)[C@@H](C)[C@H](OC(=O)Nc2ccncn2)[C@@H]1C)C4=O [UMN56]
MICWT (M. abscessus ATCC 19977): 0.048 µM
MICΔorr (Δarr M. abscessus): 0.05 µM
plasma unbound fraction ([1]; Table 10): 5.50%

CO[C@H]1/C=C/O[C@@]2(C)Oc3c(C)c(O)c4c(c3C2=O)C2=NC3(CCN(CC(C)C)CC3)NC2=C(NC(=O)/C(C)=C/C=C/[C@H](C)[C@H](O)[C@@H](C)[C@@H](O)[C@@H](C)[C@H](OC(=O)N2CCN(c3ccccc3)CC2)[C@@H]1C)C4=O [UMN58]
MICWT (M. abscessus ATCC 19977): 0.09 µM
MICΔorr (Δarr M. abscessus): 0.049 µM
plasma unbound fraction ([1]; Table 10): 0.13%

CO[C@H]1/C=C/O[C@@]2(C)Oc3c(C)c(O)c4c(c3C2=O)C2=NC3(CCN(CC(C)C)CC3)NC2=C(NC(=O)/C(C)=C/C=C/[C@H](C)[C@H](O)[C@@H](C)[C@@H](O)[C@@H](C)[C@H](OC(=O)N2CCCC2(C)C)[C@@H]1C)C4=O [UMN61]
MICWT (M. abscessus ATCC 19977): 0.08 µM
MICΔorr (Δarr M. abscessus): 0.052 µM
plasma unbound fraction ([1]; Table 10): 0.17%

CO[C@H]1/C=C/O[C@@]2(C)Oc3c(C)c(O)c4c(c3C2=O)C2=NC3(CCN(CC(C)C)CC3)NC2=C(NC(=O)/C(C)=C/C=C/[C@H](C)[C@H](O)[C@@H](C)[C@@H](O)[C@@H](C)[C@H](OC(=O)N2CCN(C(C)(C)C)CC2)[C@@H]1C)C4=O [UMN63]
MICWT (M. abscessus ATCC 19977): 0.077 µM
MICΔorr (Δarr M. abscessus): 0.043 µM
plasma unbound fraction ([1]; Table 10): 3.60%

CO[C@H]1/C=C/O[C@@]2(C)Oc3c(C)c(O)c4c(c3C2=O)C2=NC3(CCN(CC(C)C)CC3)NC2=C(NC(=O)/C(C)=C/C=C/[C@H](C)[C@H](O)[C@@H](C)[C@@H](O)[C@@H](C)[C@H](OC(=O)Nc2cccnn2)[C@@H]1C)C4=O [UMN64]
MICWT (M. abscessus ATCC 19977): 0.032 µM
MICΔorr (Δarr M. abscessus): 0.034 µM
plasma unbound fraction ([1]; Table 10): 4.15%

CO[C@H]1/C=C/O[C@@]2(C)Oc3c(C)c(O)c4c(c3C2=O)C2=NC3(CCN(CC(C)C)CC3)NC2=C(NC(=O)/C(C)=C/C=C/[C@H](C)[C@H](O)[C@@H](C)[C@@H](O)[C@@H](C)[C@H](OC(=O)Nc2cccnc2)[C@@H]1C)C4=O [UMN67]
MICWT (M. abscessus ATCC 19977): 0.025 µM
MICΔorr (Δarr M. abscessus): 0.025 µM
plasma unbound fraction ([1]; Table 10): 1.75%

CO[C@H]1/C=C/O[C@@]2(C)Oc3c(C)c(O)c4c(c3C2=O)C2=NC3(CCN(CC(C)C)CC3)NC2=C(NC(=O)/C(C)=C/C=C/[C@H](C)[C@H](O)[C@@H](C)[C@@H](O)[C@@H](C)[C@H](OC(=O)N2CCCC2)[C@@H]1C)C4=O [UMN79]
MICWT (M. abscessus ATCC 19977): 0.18 µM
MICΔorr (Δarr M. abscessus): 0.030 µM

COC(=O)Cn1cc(CNC(=O)O[C@H]2[C@H](C)[C@H](O)[C@H](C)[C@@H](O)[C@@H](C)/C=C/C=C(\C)C(=O)NC3=C4NC5(CCN(CC(C)C)CC5)N=C4c4c(c(O)c(C)c5c4C(=O)[C@@](C)(O/C=C/[C@H](OC)[C@H]2C)O5)C3=O)nn1 [UMN84]
MICWT (M. abscessus ATCC 19977): 0.13 µM
MICΔorr (Δarr M. abscessus): 0.15 µM

CO[C@H]1/C=C/O[C@@]2(C)Oc3c(C)c(O)c4c(c3C2=O)C2=NC3(CCN(CC(C)C)CC3)NC2=C(NC(=O)/C(C)=C/C=C/[C@H](C)[C@H](O)[C@@H](C)[C@@H](O)[C@@H](C)[C@H](OC(=O)N2CCNCC2)[C@@H]1C)C4=O [UMN86]
MICWT (M. abscessus ATCC 19977): 0.11 µM
MICΔorr (Δarr M. abscessus): 0.10 µM

CO[C@H]1/C=C/O[C@@]2(C)Oc3c(C)c(O)c4c(c3C2=O)C2=NC3(CCN(CC(C)C)CC3)NC2=C(NC(=O)/C(C)=C/C=C/[C@H](C)[C@H](O)[C@@H](C)[C@@H](O)[C@@H](C)[C@H](OC(=O)NC2CC(C)(C)N(Cc3ccccc3)C(C)(C)C2)[C@@H]1C)C4=O [UMN87]
MICWT (M. abscessus ATCC 19977): 0.23 µM
MICΔorr (Δarr M. abscessus): 0.30 µM

CO[C@H]1/C=C/O[C@@]2(C)Oc3c(C)c(O)c4c(c3C2=O)C2=NC3(CCN(CC(C)C)CC3)NC2=C(NC(=O)/C(C)=C/C=C/[C@H](C)[C@H](O)[C@@H](C)[C@@H](O)[C@@H](C)[C@H](OC(=O)NC2CC(C)(C)N(C)C(C)(C)C2)[C@@H]1C)C4=O [UMN91]
MICWT (M. abscessus ATCC 19977): 0.11 µM
MICΔorr (Δarr M. abscessus): 0.10 µM
